# Target: T1, HDAC6 enzyme (Homo sapiens, UniProt Q9UBN7)
# T1 construct: transducing full length HDAC6 gene into Sf-9 insect cells; GST; purchased SignalChem; host or cells: Sf-9 insect cells
# T1 sequence (Q9UBN7 1-1215): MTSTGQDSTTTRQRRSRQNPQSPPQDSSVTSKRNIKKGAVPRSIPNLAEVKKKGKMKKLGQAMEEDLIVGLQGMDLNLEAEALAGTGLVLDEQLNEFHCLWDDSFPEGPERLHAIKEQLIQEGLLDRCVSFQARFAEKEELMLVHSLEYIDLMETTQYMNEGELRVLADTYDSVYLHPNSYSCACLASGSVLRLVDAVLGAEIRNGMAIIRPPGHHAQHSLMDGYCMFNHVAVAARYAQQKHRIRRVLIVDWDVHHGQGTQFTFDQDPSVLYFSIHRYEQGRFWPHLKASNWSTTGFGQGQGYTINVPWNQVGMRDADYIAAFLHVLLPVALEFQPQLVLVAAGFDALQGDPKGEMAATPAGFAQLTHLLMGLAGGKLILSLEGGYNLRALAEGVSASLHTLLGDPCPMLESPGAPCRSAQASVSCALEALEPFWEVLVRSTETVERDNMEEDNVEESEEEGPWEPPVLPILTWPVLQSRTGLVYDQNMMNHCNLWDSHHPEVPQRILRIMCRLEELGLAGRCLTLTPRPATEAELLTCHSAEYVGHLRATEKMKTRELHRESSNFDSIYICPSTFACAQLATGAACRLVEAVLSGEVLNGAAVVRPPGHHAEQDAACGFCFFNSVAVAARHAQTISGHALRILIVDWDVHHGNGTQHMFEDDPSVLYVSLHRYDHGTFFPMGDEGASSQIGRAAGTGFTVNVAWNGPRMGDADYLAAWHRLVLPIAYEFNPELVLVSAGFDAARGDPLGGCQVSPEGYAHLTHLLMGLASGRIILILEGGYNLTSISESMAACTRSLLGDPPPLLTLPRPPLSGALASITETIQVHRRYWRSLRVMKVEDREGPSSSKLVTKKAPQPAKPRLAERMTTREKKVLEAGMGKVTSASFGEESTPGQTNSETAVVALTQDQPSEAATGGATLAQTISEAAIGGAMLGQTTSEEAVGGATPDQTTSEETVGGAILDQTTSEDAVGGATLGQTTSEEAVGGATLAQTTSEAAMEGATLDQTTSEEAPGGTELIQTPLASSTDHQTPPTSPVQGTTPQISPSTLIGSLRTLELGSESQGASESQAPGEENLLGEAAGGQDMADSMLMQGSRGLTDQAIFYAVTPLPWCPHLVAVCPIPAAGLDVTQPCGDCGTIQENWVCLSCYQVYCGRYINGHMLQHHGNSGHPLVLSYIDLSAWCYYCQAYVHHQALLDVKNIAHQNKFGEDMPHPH
# Assay: HDAC6 enzyme inhibitory activity (HDAC-Glo I/II Assay kit)
# Assay type: biochemical
# Settings: 10 μM; wells without enzyme = 100% inhibition; read-out: HDAC6 inhibitory rate (%) (10 μM)
# In short: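 Luminescent HDAC-Glo I/II readout after 20 min room-temperature reaction with substrate-developer, following 60 min compound–enzyme preincubation. Enzyme: full-length HDAC6 from Sf-9 cells, GST-purified; buffer 24 mM Tris-HCl pH 7.5, 0.01% Tween-20, glutathione, salts. Wells lacking enzyme define 100% inhibition.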
row,SMILES,inhibition at 10 µM [%]
1,"Cn1cc(-c2cc(F)cc(C#N)c2)c(N2Cc3ccc(-c4nnc(C(F)F)o4)cc3C2=O)n1 [Example 468, 3-(3-(6-(5-(difluoro-methyl)-1,3,4-oxadiazol-2-yl)-1-oxo-1,3-dihydro-2H-isoindol-2-yl)-1-methyl-1H-pyrazol-4-yl)-5-fluoro-benzonitrile]",100
2,"CC(C)(C)OC(=O)N1CCOC[C@@H]1CN1Cc2ccc(-c3nnc(C(F)F)o3)cc2C1=O [Example 35, tert-butyl (3S)-3-((6-(5-(difluoromethyl)-1,3,4-oxadiazol-2-yl)-1-oxo-1,3-dihydro-2H-isoindol-2-yl)methyl)morpholine-4-carboxylate]",97
3,"Cn1cc(-c2cc(Cl)ccc2N2Cc3ccc(-c4nnc(C(F)F)o4)cc3C2=O)cn1 [Example 270, 2-(4-chloro-2-(1-methyl-1H-pyrazol-4-yl)phenyl)-6-(5-(difluoromethyl)-1,3,4-oxadiazol-2-yl)-isoindolin-1-one]",99
4,"O=C1c2cc(-c3nnc(C(F)F)o3)cnc2CN1Cc1cccc(C(F)F)c1 [Example 370, 6-(3-(difluoromethyl)benzyl)-3-(5-(difluoro-methyl)-1,3,4-oxadiazol-2-yl)-6,7-dihydro-5H-pyrrolo[3,4-b]pyridin-5-one]",101
5,"Cn1cc(-c2cc(F)nc(F)c2)c(N2Cc3ccc(-c4nnc(C(F)F)o4)cc3C2=O)n1 [Example 471, 6-(5-(difluoro-methyl)-1,3,4-oxadiazol-2-yl)-2-(4-(2,6-difluoro-pyridin-4-yl)-1-methyl-1H-pyrazol-3-yl) isoindolin-1-one]",100
6,"O=C1c2cc(-c3nnc(C(F)F)o3)ccc2CN1c1ccnn1-c1ccccc1 [Example 435, 6-(5-(difluoro-methyl)-1,3,4-oxadiazol-2-yl)-2-(1-phenyl-1H-pyrazol-5-yl)isoindolin-1-one]",99
7,"O=C1CCCN1[C@@H]1CCCC[C@H]1N1Cc2ncc(-c3nnc(C(F)F)o3)cc2C1=O [Example 177, 3-(5-(difluoromethyl)-1,3,4-oxadiazol-2-yl)-6-((1R,2R)-2-(2-oxopyrrolidin-1-yl)cyclohexyl)-6,7-dihydro-5H-pyrrolo[3,4-b]pyridin-5-one]",97
8,"COc1cccc(-c2ccccc2N2Cc3ccc(-c4nnc(C(F)F)o4)cc3C2=O)c1 [Example 170, 6-(5-(difluoromethyl)-1,3,4-oxadiazol-2-yl)-2-(3′-methoxybiphenyl-2-yl)isoindolin-1-one]",102
9,"O=C(N[C@@H]1CCCC[C@H]1N1Cc2c(F)cc(-c3nnc(C(F)F)o3)cc2C1=O)C(F)F [Example 165, N-((1R,2R)-2-(6-(5-(difluoromethyl)-1,3,4-oxadiazol-2-yl)-4-fluoro-1-oxo-1,3-dihydro-2H-isoindol-2-yl)cyclohexyl)-2,2-difluoroacetamide]",99
10,"O=C1c2cc(-c3nnc(C(F)F)o3)ccc2CN1[C@@H]1CCCC[C@H]1NS(=O)(=O)CC(F)(F)F [Example 245, N-((1R,2R)-2-(6-(5-(difluoro-methyl)-1,3,4-oxadiazol-2-yl)-1-oxo-1,3-dihydro-2H-isoindol-2-yl)cyclohexyl)-2,2,2-trifluoro-ethanesulfonamide]",101
11,"O=C1c2cc(-c3nnc(C(F)F)o3)cnc2CN1[C@@H]1COCC[C@H]1Oc1cccc(F)c1F [Example 657, 1,5-anhydro-2,4-dideoxy-2-{3-[5-(difluoromethyl)-1,3,4-oxadiazol-2-yl]-5-oxo-5,7-dihydro-6H-pyrrolo[3,4-b]pyridin-6-yl}-3-O-(2,3-difluorophenyl)-threo-pentitol (optical isomer)]",100
12,"O=C1c2cc(-c3nnc(C(F)F)o3)cnc2CN1[C@@H]1COCC[C@H]1Oc1ccc(F)c(F)c1 [Example 646, 1,5-anhydro-2,4-dideoxy-2-(3-(5-(difluoromethyl)-1,3,4-oxadiazol-2-yl)-5-oxo-5,7-dihydro-6H-pyrrolo[3,4-b]pyridin-6-yl)-3-O-(3,4-difluorophenyl)-threo-pentitol]",99
13,"O=C(N[C@@H]1CCCC[C@H]1N1Cc2ncc(-c3nnc(C(F)F)o3)cc2C1=O)C1CCC1 [Example 464, N-((1R,2R)-2-(3-(5-(difluoro-methyl)-1,3,4-oxadiazol-2-yl)-5-oxo-5,7-dihydro-6H-pyrrolo[3,4-b]pyridin-6-yl)cyclohexyl) cyclobutane-carboxamide]",101
14,"Cn1cc(N2Cc3ccc(-c4nnc(C(F)F)o4)cc3C2=O)c(Br)n1 [Example 492, 2-(3-bromo-1-methyl-1H-pyrazol-4-yl)-6-(5-(difluoro-methyl)-1,3,4-oxadiazol-2-yl) isoindolin-1-one]",91
15,"CC(C)(C)OC(=O)N1CCC[C@@H](N2Cc3ccc(-c4nnc(C(F)F)o4)cc3C2=O)[C@H]1c1ccc(F)cc1 (racemic) [Example 618, tert-butyl (2RS,3RS)-3-(6-(5-(difluoromethyl)-1,3,4-oxadiazol-2-yl)-1-oxo-1,3-dihydro-2H-isoindol-2-yl)-2-(4-fluorophenyl)piperidine-1-carboxylate]",99
16,"CC(F)(F)C(=O)N[C@@H]1CCCC[C@H]1N1Cc2ncc(-c3nnc(C(F)F)o3)cc2C1=O [Example 162, N-((1R,2R)-2-(3-(5-(difluoromethyl)-1,3,4-oxadiazol-2-yl)-5-oxo-5,7-dihydro-6H-pyrrolo[3,4-b]pyridin-6-yl)cyclohexyl)-2,2-difluoropropanamide]",97
17,"N#Cc1cccc(C(=O)N[C@@H]2CCCC[C@H]2N2Cc3ncc(-c4nnc(C(F)F)o4)cc3C2=O)c1 [Example 225, 3-cyano-N-((1R,2R)-2-(3-(5-(difluoro-methyl)-1,3,4-oxadiazol-2-yl)-5-oxo-5,7-dihydro-6H-pyrrolo[3,4-b]pyridin-6-yl)cyclohexyl)benzamide]",98
18,"COC(=O)N1CCC[C@@H](N2Cc3ccc(-c4nnc(C(F)F)o4)cc3C2=O)[C@H]1c1ccc(F)cc1 [Example 627, methyl (2R,3R)-3-(6-(5-(difluoromethyl)-1,3,4-oxadiazol-2-yl)-1-oxo-1,3-dihydro-2H-isoindol-2-yl)-2-(4-fluorophenyl)piperidine-1-carboxylate]",100
19,"O=C1c2cc(-c3nnc(C(F)F)o3)ccc2CN1c1ccccc1-c1cnn(Cc2ccccn2)c1 [Example 323, 6-(5-(difluoromethyl)-1,3,4-oxadiazol-2-yl)-2-(2-(1-(pyridin-2-ylmethyl)-1H-pyrazol-4-yl)phenyl)-isoindolin-1-one]",97
20,O=C1c2cc(-c3nnc(C(F)F)o3)cnc2CN1C1CCCC(F)(F)[C@H]1NC(=O)C1(C(F)(F)F)CC1 (stereo partly drawn) [Example 606],99
21,"Cn1nccc1-c1ccccc1N1Cc2ccc(-c3nnc(C(F)F)o3)cc2C1=O [Example 160, 6-(5-(difluoromethyl)-1,3,4-oxadiazol-2-yl)-2-(2-(1-methyl-1H-pyrazol-5-yl)phenyl)isoindolin-1-one]",101
22,"O=C1c2cc(-c3nnc(C(F)F)o3)ccc2CN1c1ccccc1-c1cccc(OC(F)F)c1 [Example 296, 2-(3′(difluoromethoxy)-biphenyl-2-yl)-6-(5-(difluoromethyl)-1,3,4-oxadiazol-2-yl)isoindolin-1-one]",101

# Same assay, conditions: read-out: HDAC6 inhibitory rate (%) (10 μM)
row,SMILES,inhibition at 10 µM [%]
1,"O=C1c2cc(-c3nnc(C(F)F)o3)cc(F)c2CN1C[C@H]1COCCN1CC(F)(F)C(F)(F)C(F)(F)F [Example 229, 6-(5-(difluoromethyl)-1,3,4-oxadiazol-2-yl)-4-fluoro-2-(((3S)-4-(2,2,3,3,4,4,4-heptafluorobutyl)-morpholin-3-yl)methyl)isoindolin-1-one]",100
2,"O=C1c2cc(-c3nnc(C(F)F)o3)ccc2CN1[C@@H]1CCOC[C@@H]1NCC(F)(F)C(F)(F)C(F)(F)F [Example 417, 6-(5-(difluoro-methyl)-1,3,4-oxadiazol-2-yl)-2-((3R,4R)-3-((2,2,3,3,4,4,4-heptafluoro-butyl)amino)tetrahydro-2H-pyran-4-yl) isoindolin-1-one]",101

# — US10435399B2, “HDAC6 inhibitory heterocyclic compound” (TAKEDA PHARMACEUTICAL COMPANY LIMITED, priority 2017, dated 2019)
